Results reported in patent publication US20240336642A1 (The General Hospital Corporation, priority 2021, published 2024).
Counter-ions that a name gives are not always drawn.

Molecular target: h12/15-LOX (Homo sapiens (Human), UniProt P16050)
Assay: 12/15-LOX enzyme inhibition IC50 assay (Examples 1 and 2)
Assay type: biochemical
Conditions: for Emax: h12/15-LOX, read-out: Max % inhibition
Description: Enzyme was then added to the cuvettes. […] The % inhibition for each test compound concentration were calculated as follows: […]

Sequence of h12/15-LOX (P16050 whole entry): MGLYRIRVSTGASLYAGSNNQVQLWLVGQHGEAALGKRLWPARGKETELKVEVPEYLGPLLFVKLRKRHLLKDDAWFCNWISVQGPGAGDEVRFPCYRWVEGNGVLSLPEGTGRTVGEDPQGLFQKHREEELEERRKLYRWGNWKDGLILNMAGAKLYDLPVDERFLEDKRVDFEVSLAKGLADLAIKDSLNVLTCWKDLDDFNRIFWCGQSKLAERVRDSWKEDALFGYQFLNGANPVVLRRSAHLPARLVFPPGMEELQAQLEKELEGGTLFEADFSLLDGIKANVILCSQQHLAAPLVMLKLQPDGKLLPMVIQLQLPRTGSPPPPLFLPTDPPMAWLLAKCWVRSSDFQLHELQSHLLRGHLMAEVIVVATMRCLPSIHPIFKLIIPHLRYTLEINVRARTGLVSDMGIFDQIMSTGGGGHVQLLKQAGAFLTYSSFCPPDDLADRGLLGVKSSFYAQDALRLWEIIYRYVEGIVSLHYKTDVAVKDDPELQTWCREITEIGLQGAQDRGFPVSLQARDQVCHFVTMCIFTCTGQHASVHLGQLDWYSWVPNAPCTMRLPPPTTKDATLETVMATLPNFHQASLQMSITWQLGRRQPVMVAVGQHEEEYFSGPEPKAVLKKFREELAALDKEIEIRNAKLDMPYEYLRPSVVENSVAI

In the case of `CNc1oc(-c2ccc(Cl)c(Cl)c2Cl)nc1C#N`, the IC50 is reported as > 20 µM and the Emax is reported as 49%.
With `CNc1oc(-c2c(Cl)ccc(Cl)c2Cl)nc1C#N` the IC50 was > 20 µM and the Emax was 32%.
`CNc1oc(-c2cc(Cl)cc(Cl)c2C)nc1C#N` [Compound 2, 2-(3,5-Dichloro-2-methylphenyl)-5-(methylamino)oxazole-4-carbonitrile] was tested, and the IC50 was 0.063 µM and the Emax was 85%.
Work on `CNc1oc(-c2cc(Cl)cc(Cl)c2F)nc1C#N` [Compound 3, 2-(3,5-Dichloro-2-fluorophenyl)-5-(methylamino)oxazole-4-carbonitrile] yielded an IC50 of 0.33 µM and an Emax of 88%.
Compound `CNc1oc(-c2cc(Cl)cc(Cl)c2OC(F)F)nc1C#N` [Compound 4] has an Emax of 67%.
`CNc1oc(-c2cc(Cl)cc(Cl)c2OC)nc1C#N` [Compound 5, 2-(3,5-Dichloro-2-methoxyphenyl)-5-(methylamino)oxazole-4-carbonitrile] was tested, and the IC50 was 0.18 µM and the Emax was 92%.
`CNc1oc(-c2cc(Cl)cc(C)c2Cl)nc1C#N` [Compound 6, 2-(2,5-Dichloro-3-methylphenyl)-5-(methylamino)oxazole-4-carbonitrile] gave an IC50 of 0.18 µM and an Emax of 99%.
`CNc1oc(-c2cc(Cl)cc(F)c2Cl)nc1C#N` [Compound 7] was tested, and the IC50 was > 20 µM and the Emax was 37%.
`CNc1oc(-c2cc(Cl)cc(C(F)(F)F)c2Cl)nc1C#N` [Compound 8, 2-(2,5-Dichloro-3-(trifluoromethyl)phenyl)-5-(methylamino)oxazole-4-carbonitrile] gave an IC50 of 0.081 µM and an Emax of 94%.
In the case of `CNc1oc(-c2cc(Cl)cc(OC)c2Cl)nc1C#N` [Compound 9], the Emax is reported as 71%.
With `CNc1oc(-c2cc(C)cc(Cl)c2Cl)nc1C#N` [Compound 10, 2-(2,3-Dichloro-5-methylphenyl)-5-(methylamino)oxazole-4-carbonitrile] the IC50 was 0.38 µM and the Emax was 80%.
`CNc1oc(-c2cc(F)cc(Cl)c2Cl)nc1C#N` [Compound 11, 2-(2,3-Dichloro-5-fluorophenyl)-5-(methylamino)oxazole-4-carbonitrile] was tested, and the IC50 was 0.87 µM and the Emax was 93%.
With `CNc1oc(-c2cc(C(F)(F)F)cc(Cl)c2Cl)nc1C#N` [Compound 12, 2-(2,3-Dichloro-5-(trifluoromethyl)phenyl)-5-(methylamino)oxazole-4-carbonitrile] the IC50 was > 20 µM and the Emax was 41%.
With `CNc1oc(-c2cc(C#N)cc(Cl)c2Cl)nc1C#N` [Compound 13, 2-(2,3-Dichloro-5-cyanophenyl)-5-(methylamino)oxazole-4-carbonitrile] the IC50 was 1.1 µM and the Emax was 100%.
`C=CCNc1oc(-c2cc(Cl)cc(Cl)c2Cl)nc1C#N` [Compound 14, 5-(allylamino)-2-(2,3,5-trichlorophenyl)oxazole-4-carbonitrile] gave an IC50 of 0.11 µM and an Emax of 88%.
With `C/C=C/CNc1oc(-c2cc(Cl)cc(Cl)c2Cl)nc1C#N` [Compound 15, (E)-5-(But-2-en-1-ylamino)-2-(2,3,5-trichlorophenyl)oxazole-4-carbonitrile] the IC50 was 0.17 µM and the Emax was 92%.
`N#Cc1nc(-c2cc(Cl)cc(Cl)c2OC(F)F)oc1NCCCCO` [Compound 18, 2-(3,5-Dichloro-2-(difluoromethoxy)phenyl)-5-((4-hydroxybutyl)amino)oxazole-4-carbonitrile] was tested, and the IC50 was 2 µM and the Emax was 90%.
`Cc1c(Cl)cc(Cl)cc1-c1nc(C#N)c(NCCCCO)o1` [Compound 19, 2-(3,5-Dichloro-2-methylpheny1)-5-((4-hydroxybutyl)amino)oxazole-4-carbonitrile] gave an IC50 of 0.46 µM and an Emax of 68%.
With `N#Cc1nc(-c2cc(Cl)cc(C(F)(F)F)c2Cl)oc1NCCCCO` [Compound 20, 2-(2,5-Dichloro-3-(trifluoromethyl)phenyl)-5-((4-hydroxybutyl)amino)oxazole-4-carbonitrile] the IC50 was 1.5 µM and the Emax was 97%.
For `Cc1cc(Cl)c(Cl)c(-c2nc(C#N)c(NCCCCO)o2)c1` [Compound 21, 2-(2,3-Dichloro-5-methylphenyl)-5-((4-hydroxybutyl)amino)oxazole-4-carbonitrile], the IC50 was 8 µM and the Emax was 86%.
Work on `N#Cc1nc(-c2cc(Cl)cc(Cl)c2OC(F)F)oc1NCCCCCO` [Compound 23, 2-(3,5-Dichloro-2-(difluoromethoxy)phenyl)-5-((5-hydroxypentyl)amino)oxazole-4-carbonitrile] yielded an IC50 of 2 µM and an Emax of 97%.
For `Cc1c(Cl)cc(Cl)cc1-c1nc(C#N)c(NCCCCCO)o1` [Compound 24, 2-(3,5-Dichloro-2-methylphenyl)-5-((5-hydroxypentyl)amino)oxazole-4-carbonitrile], the IC50 was 0.32 µM and the Emax was 80%.
`N#Cc1nc(-c2cc(Cl)cc(Cl)c2F)oc1NCCCCCO` [Compound 25] was tested, and the Emax was 38%.
With `Cc1cc(Cl)cc(-c2nc(C#N)c(NCCCCCO)o2)c1Cl` [Compound 26, 2-(2,5-Dichloro-3-methylphenyl)-5-((5-hydroxypentyl)amino)oxazole-4-carbonitrile] the IC50 was 0.8 µM and the Emax was 100%.
`N#Cc1nc(-c2cc(Cl)cc(C(F)(F)F)c2Cl)oc1NCCCCCO` [Compound 27, 2-(2,5-Dichloro-3-(trifluoromethyl)phenyl)-5-((5-hydroxypentyl)amino)oxazole-4-carbonitrile] was tested, and the IC50 was 0.55 µM and the Emax was 70%.
In the case of `N#Cc1nc(-c2cc(Cl)cc(Cl)c2OC(F)F)oc1NCCOCCO` [Compound 29, 2-(3,5-Dichloro-2-(difluoromethoxy)phenyl)-5-((2-(2-hydroxyethoxy)ethyl)amino)oxazole-4-carbonitrile], the IC50 is reported as 3 µM and the Emax is reported as 100%.
For `Cc1c(Cl)cc(Cl)cc1-c1nc(C#N)c(NCCOCCO)o1` [Compound 30], the Emax was 100%.
Work on `N#Cc1nc(-c2cc(Cl)cc(C(F)(F)F)c2Cl)oc1NCCOCCO` [Compound 31, 2-(2,5-Dichloro-3-(trifluoromethyl)phenyl)-5-((2-(2-hydroxyethoxy)ethyl)amino)oxazole-4-carbonitrile] yielded an IC50 of 2.4 µM and an Emax of 99%.
With `COCCOCCNc1oc(-c2cc(Cl)cc(Cl)c2OC(F)F)nc1C#N` [Compound 33, 2-(3,5-Dichloro-2-(difluoromethoxy)phenyl)-5-((2-(2-methoxyethoxy)ethyl)amino)oxazole-4-carbonitrile] the IC50 was 0.65 µM and the Emax was 100%.
With `COCCOCCNc1oc(-c2cc(Cl)cc(Cl)c2C)nc1C#N` [Compound 34] the Emax was 100%.
For `COCCOCCNc1oc(-c2cc(Cl)cc(Cl)c2F)nc1C#N` [Compound 35, 2-(3,5-Dichloro-2-fluorophenyl)-5-((2-(2-methoxyethoxy)ethyl)amino)oxazole-4-carbonitrile], the IC50 was 3 µM and the Emax was 100%.
In the case of `COCCOCCNc1oc(-c2cc(Cl)cc(C)c2Cl)nc1C#N` [Compound 36, 2-(2,5-Dichloro-3-methylphenyl)-5-((2-(2-methoxyethoxy)ethyl)amino)oxazole-4-carbonitrile], the IC50 is reported as 1.1 µM and the Emax is reported as 100%.
`COCCOCCNc1oc(-c2cc(Cl)cc(C(F)(F)F)c2Cl)nc1C#N` [Compound 37, 2-(2,5-Dichloro-3-(trifluoromethyl)phenyl)-5-((2-(2-methoxyethoxy)ethyl)amino)oxazole-4-carbonitrile] gave an IC50 of 1.8 µM and an Emax of 96%.
For `COCCOCCNc1oc(-c2cc(C)cc(Cl)c2Cl)nc1C#N` [Compound 38, 2-(2,3-Dichloro-5-methylphenyl)-5-((2-(2-methoxyethoxy)ethyl)amino)oxazole-4-carbonitrile], the IC50 was 6.6 µM and the Emax was 100%.
In the case of `COCCNc1oc(-c2cc(Cl)cc(Cl)c2OC(F)F)nc1C#N` [Compound 40, 2-(3,5-Dichloro-2-(difluoromethoxy)phenyl)-5-((2-methoxyethyl)amino)oxazole-4-carbonitrile], the IC50 is reported as 0.29 µM and the Emax is reported as 94%.
`COCCNc1oc(-c2cc(Cl)cc(Cl)c2C)nc1C#N` [Compound 41, 2-(3,5-Dichloro-2-methylphenyl)-5-((2-methoxyethyl)amino)oxazole-4-carbonitrile] was tested, and the IC50 was 0.17 µM and the Emax was 89%.
Compound `COCCNc1oc(-c2cc(Cl)cc(C(F)(F)F)c2Cl)nc1C#N` [Compound 42, 2-(2,5-Dichloro-3-(trifluoromethyl)phenyl)-5-((2-methoxyethyl)amino)oxazole-4-carbonitrile] has an IC50 of 0.35 µM and an Emax of 75%.
`CN(C(=O)CC1CCNCC1)c1oc(-c2cc(Cl)cc(Cl)c2Cl)nc1C#N` [Compound 53] was tested, and the IC50 was > 20 µM.
For `[2H]C([2H])([2H])N(C(=O)OCCCN(C)C)c1oc(-c2cc(Cl)cc(Cl)c2Cl)nc1C#N` [Compound 54, hydrochloride], the IC50 was > 20 µM.
`COCCOC(=O)N(C)c1oc(-c2cc(Cl)cc(Cl)c2Cl)nc1C#N` [Compound 55, 2-Methoxyethyl (4-cyano-2-(2,3,5-trichlorophenyl)oxazol-5-yl)(methyl)carbamate] was tested, and the IC50 was > 20 µM.
With `COCCOCCOC(=O)N(C)c1oc(-c2cc(Cl)cc(Cl)c2Cl)nc1C#N` [Compound 56, 2-(2-Methoxyethoxy)ethyl (4-cyano-2-(2,3,5-trichlorophenyl)oxazol-5-yl)(methyl)carbamate] the IC50 was > 20 µM.
With `CN(C)CCCOC(=O)Nc1oc(-c2cc(Cl)cc(Cl)c2Cl)nc1C#N` [Compound 57, 3-(dimethylamino) propyl (4-cyano-2-(2,3,5-trichlorophenyl)oxazol-5-yl) carbamate hydrochloride] the IC50 was > 20 µM.
In the case of `COCCOC(=O)Nc1oc(-c2cc(Cl)cc(Cl)c2Cl)nc1C#N` [Compound 58, 2-Methoxyethyl (4-cyano-2-(2,3,5-trichlorophenyl)oxazol-5-yl)carbamate], the IC50 is reported as > 20 µM.
`CN(C)CCOC(=O)Nc1oc(-c2cc(Cl)cc(Cl)c2Cl)nc1C#N` [Compound 59, 2-(Dimethylamino)ethyl (4-cyano-2-(2,3,5-trichlorophenyl)oxazol-5-yl)carbamate hydrochloride] was tested, and the IC50 was > 20 µM.
In the case of `COCCOCCOC(=O)Nc1oc(-c2cc(Cl)cc(Cl)c2Cl)nc1C#N` [Compound 60, 2-(2-Methoxyethoxy)ethyl (4-cyano-2-(2,3,5-trichlorophenyl)oxazol-5-yl)carbamate], the IC50 is reported as > 20 µM.
